Results: patent publication US8026243B2, “[4,5′]Bipyrimidinyl-6,4′-diamine derivatives as protein kinase inhibitors” (Novartis AG, priority 2006, dated 2011)

What follows are compounds tested against T1, Ba/F3-TEL-FGFR3 cells (Homo sapiens, UniProt P22607) (assay: FGFR3 cellular assay: proliferation of transformed Ba/F3-TEL-FGFR3 cells (AlamarBlue)). Conditions: 48 hours incubation, class symbols.
T1 construct: fused on or other part: The N-terminal oligomerising part of TEL (ETV6) is fused before the intracellular kinase part of FGFR3; P41212 (Transcription factor ETV6)
T1 sequence (P22607 whole entry, change not shown, the tested form may be a part): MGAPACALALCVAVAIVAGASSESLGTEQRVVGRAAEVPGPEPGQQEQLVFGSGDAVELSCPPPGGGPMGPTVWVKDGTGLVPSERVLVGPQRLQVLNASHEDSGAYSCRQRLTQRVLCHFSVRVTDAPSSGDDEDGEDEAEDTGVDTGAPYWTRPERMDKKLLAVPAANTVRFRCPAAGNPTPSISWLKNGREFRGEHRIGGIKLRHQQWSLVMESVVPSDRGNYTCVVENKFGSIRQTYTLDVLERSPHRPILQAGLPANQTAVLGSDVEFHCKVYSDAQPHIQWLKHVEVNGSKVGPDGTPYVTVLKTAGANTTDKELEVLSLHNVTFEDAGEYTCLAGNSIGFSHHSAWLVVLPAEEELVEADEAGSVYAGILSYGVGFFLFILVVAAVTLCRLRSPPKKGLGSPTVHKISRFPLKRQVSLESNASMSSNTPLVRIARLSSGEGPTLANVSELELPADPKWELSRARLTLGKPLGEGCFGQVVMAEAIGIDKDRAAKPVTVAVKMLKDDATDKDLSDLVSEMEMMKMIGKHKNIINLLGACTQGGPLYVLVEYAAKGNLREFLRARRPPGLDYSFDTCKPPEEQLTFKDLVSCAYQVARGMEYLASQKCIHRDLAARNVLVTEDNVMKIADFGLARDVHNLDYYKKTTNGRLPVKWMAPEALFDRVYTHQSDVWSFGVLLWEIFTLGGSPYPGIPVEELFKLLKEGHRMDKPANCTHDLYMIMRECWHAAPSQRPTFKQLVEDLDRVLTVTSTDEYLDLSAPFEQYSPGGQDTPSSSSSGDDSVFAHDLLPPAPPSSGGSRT
Assay type: cell-based
Outline: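 Ba/F3-TEL-FGFR3 cells (5000/well) in RPMI 1640 with 10% FBS, exposed to twelve-point 1:3 compound dilutions for 48 h. Proliferation read by AlamarBlue (10% final, 4 h at 37 °C), fluorescence Ex530/Em580; IC50 from linear regression of percent inhibition.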
For `COc1cc(OC)c(Cl)c(Nc2ncncc2-c2cc(Nc3ccc(CN4CCN(CCO)CC4)cn3)ncn2)c1Cl` [Compound 75, 2-(4-{6-[4′-(2,6-Dichloro-3,5-dimethoxy-phenylamino)-[4,5′]bipyrimidinyl-6-yl-amino]-pyridin-3-ylmethyl}-piperazin-1-yl)-ethanol], the GI50 was less than 100 nM.
In the case of `COc1cc(OC)c(Cl)c(Nc2ncncc2-c2cc(Nc3ccc(CN(C)C)cn3)ncn2)c1Cl` [Compound 7, N4′-(2,6-Dichloro-3,5-dimethoxy-phenyl)-N6-(5-dimethylaminomethyl-pyridin-2-yl)-[4,5′]bipyrimidinyl-6,4′-diamine], the GI50 is reported as less than 100 nM.
`COc1cc(OC)c(Cl)c(Nc2ncncc2-c2cc(NCCCN3CCOCC3)ncn2)c1Cl` [Compound 12, N4′-(2,6-Dichloro-3,5-dimethoxy-phenyl)-N6-(3-morpholin-4-yl-propyl)-[4,5′]bipyrimidinyl-6,4′-diamine] gave a GI50 of 100 to 250 nM.
`Nc1cc(-c2nccnc2Nc2c(Cl)cccc2Cl)ncn1` [Compound 106, 6-(3-(2,6-dichlorophenylamino)pyrazin-2-yl)pyrimidin-4-amine] gave a GI50 of less than 100 nM.
`CCN1CCN(c2ccc(Nc3cc(-c4cncnc4Nc4c(F)c(OC)cc(OC)c4F)ncn3)nc2)CC1` [Compound 62, N4′-(2,6-Difluoro-3,5-dimethoxy-phenyl)-N6-[5-(4-ethyl-piperazin-1-yl)-pyridin-2-yl]-[4,5′]bipyrimidinyl-6,4′-diamine] was tested, and the GI50 was less than 100 nM.
`COc1cc(OC)c(Cl)c(Nc2ncncc2-c2cc(Nc3cc(CN4CCN(C)CC4)ccn3)ncn2)c1Cl` [Compound 6, N4′-(2,6-Dichloro-3,5-dimethoxy-phenyl)-N6-[4-(4-methyl-piperazin-1-ylmethyl)-pyridin-2-yl]-[4,5′]bipyrimidinyl-6,4′-diamine] was tested, and the GI50 was less than 100 nM.
`COc1cc(OC)c(Cl)c(Nc2ncncc2-c2cc(Nc3ccc(CN4CCN(CCO)CC4)cn3)ncn2)c1C` [Compound 76, 2-(4-{6-[4′-(2-Chloro-3,5-dimethoxy-6-methyl-phenylamino)-[4,5′]bipyrimidinyl-6-ylamino]-pyridin-3-ylmethyl}-piperazin-1-yl)-ethanol] gave a GI50 of less than 100 nM.
`COc1cc(OC)c(Cl)c(Nc2ncncc2-c2cc(Nc3ccc(CN4CCOCC4)cn3)ncn2)c1C` [Compound 52, N4′-(2-Chloro-3,5-dimethoxy-6-methyl-phenyl)-N6-(5-morpholin-4-ylmethyl-pyridin-2-yl)-[4,5′]bipyrimidinyl-6,4′-diamine] showed a GI50 of less than 100 nM.
For `CCN1CCN(Cc2ccc(Nc3cc(-c4cncnc4Nc4c(F)c(OC)cc(OC)c4Cl)ncn3)nc2)CC1` [Compound 45, N4′-(2-Chloro-6-fluoro-3,5-dimethoxy-phenyl)-N6-[5-(4-ethyl-piperazin-1-ylmethyl)-pyridin-2-yl]-[4,5′]bipyrimidinyl-6,4′-diamine], the GI50 was less than 100 nM.
`CNC(=O)N1CCN(Cc2ccc(Nc3cc(-c4cncnc4Nc4c(Cl)c(OC)cc(OC)c4Cl)ncn3)nc2)CC1` [Compound 20, 4-{6-[4′-(2,6-Dichloro-3,5-dimethoxy-phenylamino)-[4,5′]bipyrimidinyl-6-ylamino]-pyridin-3-ylmethyl}-piperazine-1-carboxylic acid methylamide] showed a GI50 of less than 100 nM.
`COc1cc(OC)c(Cl)c(Nc2ncncc2-c2cc(Nc3ccc(CN4CCN(C(N)=O)CC4)cn3)ncn2)c1Cl` [Compound 15, 4-{6-[4′-(2,6-Dichloro-3,5-dimethoxy-phenylamino)-[4,5′]bipyrimidinyl-6-ylamino]-pyridin-3-ylmethyl}-piperazine-1-carboxylic acid amide] showed a GI50 of less than 100 nM.
Work on `CCN(CC)Cc1ccc(Nc2cc(-c3cncnc3Nc3c(Cl)c(OC)cc(OC)c3Cl)ncn2)nc1` [Compound 28, N4′-(2,6-Dichloro-3,5-dimethoxy-phenyl)-N6-(5-diethylamino-methyl-pyridin-2-yl)-[4,5′]bipyrimidinyl-6,4′-diamine] yielded a GI50 of less than 100 nM.
Work on `COc1cc(Nc2ncncc2-c2cc(Nc3ccc(CN4CCN(C(=O)CO)CC4)cn3)ncn2)c(F)c(OC)c1` [Compound 90] yielded a GI50 of less than 100 nM.
Compound `COc1cc(OC)c(Cl)c(Nc2ncncc2-c2cc(Nc3ccc(N4CCOCC4)cc3)ncn2)c1Cl` [Compound 11, N4′-(2,6-Dichloro-3,5-dimethoxy-phenyl)-N6-(4-morpholin-4-yl-phenyl)-[4,5′]bipyrimidinyl-6,4′-diamine] has a GI50 of less than 100 nM.
For `CCN1CCN(c2ccc(Nc3cc(-c4cncnc4Nc4c(Cl)c(OC)cc(C(=O)NC5CC5)c4Cl)ncn3)nc2)CC1` [Compound 55, 2,4-Dichloro-N-cyclopropyl-3-{6-[5-(4-ethyl-piperazin-1-yl)-pyridin-2-ylamino]-[4,5′]bipyrimidinyl-4′-ylamino}-5-methoxy-benzamide], the GI50 was less than 100 nM.
`CCNC(=O)c1cc(OC)c(Cl)c(Nc2ncncc2-c2cc(Nc3ccc(N4CCN(CC)CC4)cc3)ncn2)c1Cl` [Compound 36, 2,4-Dichloro-N-ethyl-3-{6-[4-(4-ethyl-piperazin-1-yl)-phenylamino]-[4,5′]bipyrimidinyl-4′-ylamino}-5-methoxy-benzamide] was tested, and the GI50 was less than 100 nM.
`COc1cc(OC)c(Cl)c(Nc2ncncc2-c2cc(Nc3ccc(C(C)O)cn3)ncn2)c1Cl` (stereo not drawn) [Compound 82, 1-{6-[4′-(2,6-Dichloro-3,5-dimethoxy-phenylamino)-[4,5′]bipyrimidinyl-6-ylamino]-pyridin-3-yl}-ethanol] showed a GI50 of less than 100 nM.
In the case of `COc1cc(OC)c(Cl)c(Nc2ncncc2-c2cc(Nc3cc(CCN4CCOCC4)ccn3)ncn2)c1F` [Compound 56, N4′-(2-Chloro-6-fluoro-3,5-dimethoxy-phenyl)-N6-[4-(2-morpholin-4-yl-ethyl)-pyridin-2-yl]-[4,5′]bipyrimidinyl-6,4′-diamine], the GI50 is reported as less than 100 nM.
